Test results published in patent publication US20180153990A1, “PCA1 PROTEIN AND METHODS OF TREATING PNEUMOCYSTIS PNEUMONIA INFECTION” (priority 2016, published 2018).

Key:
[1] = tested on: Pneumocystis; assay: Pcp-IRIS model: physiologic assessment (body weight, lung compliance, lung resistance); type: in vivo, SCID mice; conditions: treatment started when mice showed clinical signs of Pcp-IRIS
Text: Severe combined immune deficient (SCID) mice on a C.B-17 background are maintained in a specific pathogen-free colony at University of Rochester Medical Center. For these studies, 6-8 week old female mice were infected with Pneumocystis by intratracheal inoculation with 1×10^5 Pneumocystis cysts and then also cohoused with other Pneumocystis-infected SCID mice to ensure infection. The mice were fed acidified water and sterile food. Immune reconstitution (IR) was initiated three weeks after infection by giving mice an intraperitoneal (i.p.) injection of 5×10^7 splenocytes from wild-type C.B-17 mice. All animals involved were treated ethically according to the guidelines from the Association for Assessment and Accreditation of Laboratory Care International (AAALAC International), and the protocols used were approved by the University Committee on Animal Resources.
Lung resistance and compliance were measured on living ventilated mice using a Harvard rodent ventilator (Harvard Apparatus, Southnatic, Mass.) and a whole body plethysmograph (BUXCO Electronics Inc., Wilmington, N.C.) as previously described (Wang et al., “Immune Modulation With Sulfasalazine Attenuates Immunopathogenesis but Enhances Macrophage-Mediated Fungal Clearance During Pneumocystis Pneumonia,” PLoS Pathog. 6:e1001058 (2010), which is hereby incorporated by reference in its entirety). […]

[2] = tested on: alveolar macrophages; assay: Effect of antibody administration during Pcp on alveolar macrophage phenotype (iNOS M1 / YM-1 M2 staining); type: in vivo, SCID mice
Experimental: For this experiment the Pneumocystis-infected mice were treated as above except that they received only 2 doses of specific antibody, nonspecific antibody or sulfasalazine on days 1 and 3 and then sacrificed later in the day on day 3. BALF aliquots containing 5×10^4 cells in HBSS were cytospun onto glass slides, fixed with 3% paraformaldehyde in PBS for 15 minutes at room temperature; rinsed 3× in PBS; and permeabilized with 0.02% Triton X-100 in PBS for 15 minutes at room temperature. The slides were then rinsed 3× in PBS, blocked with species specific 5% normal serum (normal goat serum, MP Biomedical; normal donkey serum, EMD Millipore) in 0.05% Tween-20 in PBS (PBS-T) for 1 hr at room temperature and rinsed 3× in PBS-T. Alveolar macrophages were identified by staining with fluorescein labeled primary antibody to CD11c. Staining with antibody to iNOS was used to identify M1 macrophages while staining with antibody to YM-1 was considered a marker for M2 macrophages (Abcam and Stemcell).
To test the effect of immune modulation, by administration of sulfasalazine or passive immunization, on macrophage phenotype during response to Pneumocystis, these agents or control nonspecific antibody were administered and alveolar macrophages were harvested after 3 days.

## O=C(O)c1cc(/N=N/c2ccc(S(=O)(=O)Nc3ccccn3)cc2)ccc1O [SSZ, sulfasalazine]
[1]
  severity of Pcp (recovery of body weight, pulmonary function): reduced severity of Pcp
[2]; Treatment Day 3
  M1 phenotype alveolar macrophages: 200 per 300 macrophages counted
  M2 phenotype alveolar macrophages: 100 per 300 macrophages counted
[2]; after 3 days
  proportion of M2 type macrophages in the alveolar space: increase
